Assay results as given in patent US20260000632A1, “STRUCTURALLY MODIFIED FATTY ACIDS FOR IMPROVING GLYCEMIC CONTROL AND TREATING INFLAMMATORY BOWEL DISEASE” (Northsea Therapeutics B.V., priority 2018, published 2026).
Where two headings read alike, the source gives them in different places.

How the values were obtained:
active GLP-1 = assay: Active GLP-1 during oral glucose tolerance test (OGTT) and at 24 h in lean male SPD rats; assay type: in vivo, rat
Procedure: (§1) To establish the acute effects of oral administration of Compound A and Compound B upon active GLP-1 and insulin concentrations, lean (about 300 g) male Sprague-Dawley (SPD) rats were divided into groups (n=6-8) and fed 74 and 84 mg/kg body weight of Compound A or Compound B respectively, either with or without concurrent administration of a dipeptidyl peptidase 4 (DPP-4) inhibitor 60 minutes prior to an oral glucose tolerance test (OGTT) as outlined below. Parallel groups receiving either corn oil alone (corn oil+vehicle, n=10) or corn oil and a DPP-4 inhibitor (“DPP-4 i”) (corn oil+ (DPP-4 i), n=10) were included as controls. The DPP-4 inhibitor was linagliptin.
(§2) A second oral dose of 74 and 84 mg/kg bodyweight of Compound A or Compound B respectively was administered at 240 minutes and ad lib feeding was initiated. A second dose of DPP-4 inhibitor was administered at 480 mins prior to lights out. Blood samples were collected at 24 h for measurement of active GLP-1 and insulin. All values are mean, figures depict mean values (SEM).

plasma insulin = assay: Plasma insulin at 24 h in lean male SPD rats; assay type: in vivo, rat; conditions: Compound A 74 mg/kg or Compound B 84 mg/kg oral, non-significant
Procedure: as §1, §2

ob/ob mice [1] = assay: Glucose tolerance after 21-day treatment in high-fat diet fed ob/ob mice; assay type: in vivo, mouse; conditions: 112 mg/kg once-daily via diet, 21 days
Procedure: This study was carried out to assess the effects of chronic treatment with Compound B or Compound A on glucose tolerance in a T2DM rodent model.
For assessing the effects of Compound A, ob/ob mice were fed a high-fat diet (comprising 2% cholesterol, 40% fat (containing 18% trans-fatty acids), 20% fructose) for 15 weeks starting at age 5 weeks. […] After 21 days the mice received a 2 g/kg oral glucose load. After the oral glucose load, plasma glucose was measured at multiple time points from 0-240 minutes.

ob/ob mice [2] = assay: Chronic treatment in ob/ob mice: basal parameters after 4 weeks; assay type: in vivo, mouse; conditions: 4 weeks diet admix, 4 h fast, Compound A 135, fenofibrate 100, pioglitazone 30 mg/kg bw/d, mean ± SEM; for Plasma adiponectin: control 4.3 ± 0.4; for Blood HbA1c: control 8.4 ± 0.4; for HOMA-IR: control 65.7 ± 9.8; for Plasma insulin: control 73.2 ± 13.6; for Plasma ALT: control 271.4 ± 18.8; for Blood glucose: control 380.8 ± 26.3
Procedure: (§3) Mice were fed a standard low-fat (7% w/w fat) diet. After 4-weeks, the mice were fasted for 4 hours and the effects of Compound A were assessed. Assessment of the effects of Compound A included basal levels of blood glucose, plasma insulin, HbA1c levels, and homeostatic model assessment of insulin resistance (HOMA-IR). HOMA-IR is an assessment of insulin resistance and is calculated by the following formula: fasting insulin (micro U/L)×fasting glucose […]/22.5.

ob/ob mice [3] = assay: Oral glucose (2 g/kg) tolerance test after 5 weeks treatment in ob/ob mice; assay type: in vivo, mouse; conditions: for Plasma glucose AUC (0-120 min) / Plasma glucose, 0 min / Plasma glucose, 15 min / Plasma glucose, 30 min / Plasma glucose, 45 min / Plasma glucose, 60 min / Plasma glucose, 120 min: OGTT 2 g/kg, mean
Procedure: as §3
After 5 weeks, an oral glucose (2 g/kg) tolerance test was performed after a 4 hour fast.

atherogenic lipids [4] = conditions: humans; cited from earlier work
atherogenic lipids [5] = conditions: APOE*3.CETP mice; cited from earlier work
GLP-1 = conditions: direct colonic delivery, rodents; cited from earlier work
[6] = 15 mg/kg bw/d diet admix 5 weeks
[7] = 45 mg/kg bw/d diet admix 5 weeks
[8] = 135 mg/kg bw/d diet admix 5 weeks
[9] = reference drugs: fenofibrate 100, pioglitazone 30 mg/kg bw/d diet admix 5 weeks

In the case of CC/C=C\C/C=C\C/C=C\C/C=C\C/C=C\CCCCOC(CC)C(=O)O (centres unmarked) [Compound A, 2-(((5Z,8Z,11Z,14Z,17Z)-icosa-5,8,11,14,17-pentaen-1-yl)oxy)butanoic acid], the “Effect on active GLP-1 concentration at 24 h versus corn oil+vehicle” value (active GLP-1; in combination with DPP4 inhibitor, Compound A 74 mg/kg or Compound B 84 mg/kg oral, two doses) is reported as “significantly (p<0.05) increased”, the “Increase in plasma insulin concentration at 24 h versus corn oil+vehicle and corn oil+DPP4 inhibitor” value (plasma insulin; compound alone) is reported as 25% and the “Increase in plasma insulin concentration at 24 h versus corn oil+vehicle and corn oil+DPP4 inhibitor” value (plasma insulin; in combination with DPP4 inhibitor) is reported as 25%. For the same molecule, the “Glucose tolerance from 15 minutes through 90 minutes post-glucose load compared to vehicle” value (ob/ob mice [1]) was “significantly improved glucose tolerance”, the AUC glucose (ob/ob mice [1]; p<0.01) was “significantly reduced AUC glucose” and the Plasma adiponectin (ob/ob mice [2]) was 3.8 ± 0.4 µg/mL. The “Blood HbA1c” value (ob/ob mice [2]) was 4.5 ± 0.1 %, the HOMA-IR (ob/ob mice [2]) was 8.6 ± 3.6 and the Plasma insulin (ob/ob mice [2]) was 17.6 ± 6.8 ng/mL. The “Plasma ALT” value (ob/ob mice [2]) was 180.6 ± 14.6 U/L, the Blood glucose (ob/ob mice [2]) was 191.5 ± 6.1 mg/dL and the Plasma glucose AUC (0-120 min) (ob/ob mice [3]; [6]) was 1760 mM·min. The “Plasma glucose, 0 min” value (ob/ob mice [3]; [6]) was 11.4 mM, the “Plasma glucose, 15 min” value (ob/ob mice [3]; [6]) was 37.5 mM and the “Plasma glucose, 30 min” value (ob/ob mice [3]; [6]) was 34.4 mM. The “Plasma glucose, 45 min” value (ob/ob mice [3]; [6]) was 28.0 mM, the “Plasma glucose, 60 min” value (ob/ob mice [3]; [6]) was 25.5 mM and the “Plasma glucose, 120 min” value (ob/ob mice [3]; [6]) was 19.6 mM. For the same molecule, the Plasma glucose AUC (0-120 min) (ob/ob mice [3]; [7]) was 1110 mM·min, the “Plasma glucose, 0 min” value (ob/ob mice [3]; [7]) was 13.3 mM and the “Plasma glucose, 15 min” value (ob/ob mice [3]; [7]) was 36.5 mM. The “Plasma glucose, 30 min” value (ob/ob mice [3]; [7]) was 30.1 mM, the “Plasma glucose, 45 min” value (ob/ob mice [3]; [7]) was 24.5 mM and the “Plasma glucose, 60 min” value (ob/ob mice [3]; [7]) was 21.0 mM. The “Plasma glucose, 120 min” value (ob/ob mice [3]; [7]) was 15.3 mM, the Plasma glucose AUC (0-120 min) (ob/ob mice [3]; [8]) was 816 mM·min and the “Plasma glucose, 0 min” value (ob/ob mice [3]; [8]) was 9.2 mM. For the same molecule, the “Plasma glucose, 15 min” value (ob/ob mice [3]; [8]) was 27.7 mM, the “Plasma glucose, 30 min” value (ob/ob mice [3]; [8]) was 22.1 mM and the “Plasma glucose, 45 min” value (ob/ob mice [3]; [8]) was 14.6 mM. The “Plasma glucose, 60 min” value (ob/ob mice [3]; [8]) was 13.4 mM, the “Plasma glucose, 120 min” value (ob/ob mice [3]; [8]) was 12.8 mM and the “Lowering of glucose levels in oral glucose tolerance test” value (ob/ob mice [3]; 15, 45, 135 mg/kg bw/d diet admix 5 weeks) was “dose-dependent response in lowering glucose levels”. For the same molecule, the “Effect on atherogenic lipids” value (atherogenic lipids [4]) was “significantly reduce atherogenic lipids” and the “Effect on atherogenic lipids” value (atherogenic lipids [5]) was “significantly reduce atherogenic lipids”.

For CC#CCn1c(N2CCC[C@@H](N)C2)nc2c1c(=O)n(Cc1nc(C)c3ccccc3n1)c(=O)n2C [DPP4 inhibitor, linagliptin, reference compound], the “Effect on active GLP-1 concentration at 24 h” value (active GLP-1; corn oil+DPP4 inhibitor alone) was “no significant effect” and the “Effect on active GLP-1 (AUC 0-60 mins) versus corn oil alone” value (active GLP-1; corn oil+DPP4 inhibitor alone, OGTT) was “no significant effect”.

With CC(C)OC(=O)C(C)(C)Oc1ccc(C(=O)c2ccc(Cl)cc2)cc1 [Fenofibrate, fenofibrate, reference compound] the Plasma adiponectin (ob/ob mice [2]) was 5.0 ± 0.4 µg/mL, the “Blood HbA1c” value (ob/ob mice [2]) was 4.8 ± 0.2 % and the HOMA-IR (ob/ob mice [2]) was 20.3 ± 5.9. For the same molecule, the Plasma insulin (ob/ob mice [2]) was 35.5 ± 9.0 ng/mL, the “Plasma ALT” value (ob/ob mice [2]) was 224.0 ± 27.4 U/L and the Blood glucose (ob/ob mice [2]) was 220.3 ± 8.1 mg/dL. For the same molecule, the Plasma glucose AUC (0-120 min) (ob/ob mice [3]; [9]) was 1420 mM·min, the “Plasma glucose, 0 min” value (ob/ob mice [3]; [9]) was 15.4 mM and the “Plasma glucose, 15 min” value (ob/ob mice [3]; [9]) was 35.9 mM. For the same molecule, the “Plasma glucose, 30 min” value (ob/ob mice [3]; [9]) was 35.9 mM, the “Plasma glucose, 45 min” value (ob/ob mice [3]; [9]) was 30.6 mM and the “Plasma glucose, 60 min” value (ob/ob mice [3]; [9]) was 28.2 mM.

For CCc1ccc(CCOc2ccc(CC3SC(=O)NC3=O)cc2)nc1 (centres unmarked) [Pioglitazone, pioglitazone, reference compound], the “Blood HbA1c” value (ob/ob mice [2]) was 3.8 ± 0.1 %, the HOMA-IR (ob/ob mice [2]) was 2.1 ± 0.3 and the Plasma insulin (ob/ob mice [2]) was 5.7 ± 0.8 ng/mL. The “Plasma ALT” value (ob/ob mice [2]) was 257.3 ± 15.5 U/L, the Blood glucose (ob/ob mice [2]) was 147.5 ± 3.1 mg/dL and the Plasma glucose AUC (0-120 min) (ob/ob mice [3]; [9]) was 879 mM·min. For the same molecule, the “Plasma glucose, 0 min” value (ob/ob mice [3]; [9]) was 7.8 mM, the “Plasma glucose, 15 min” value (ob/ob mice [3]; [9]) was 24.2 mM and the “Plasma glucose, 30 min” value (ob/ob mice [3]; [9]) was 18.5 mM. For the same molecule, the “Plasma glucose, 45 min” value (ob/ob mice [3]; [9]) was 17.3 mM, the “Plasma glucose, 60 min” value (ob/ob mice [3]; [9]) was 15.2 mM and the “Plasma glucose, 120 min” value (ob/ob mice [3]; [9]) was 10.9 mM.

In the case of CC/C=C\C/C=C\C/C=C\C/C=C\C/C=C\C/C=C\CCC(=O)O [DHA], the GLP-1 secretion (GLP-1) is listed as “able to induce GLP-1 secretion”.
